Experiment: xn = mol fraction of the nth substance listed
Settings: 101 kPa, Liquid

CC(C)CO [2-methyl-1-propanol] + CCOC(=O)CC(=O)OCC
x2 = 0
Settings | mass density [kg/m3]
288.15 K | 805.6
298.15 K | 797.916
313.15 K | 786.069
328.15 K | 773.692

CCCCO [butan-1-ol] + CCOC(=O)CC(=O)OCC
x2 = 0
Settings | mass density [kg/m3]
288.15 K | 813.77
298.15 K | 806.137
313.15 K | 794.488
328.15 K | 782.477

CCOC(=O)CC(=O)OCC [diethyl 1,3-propanedioate] + CC(C)CO
mass density [kg/m3]
Settings | 288.15 K | 298.15 K | 313.15 K | 328.15 K
x1 = 0.1 | 843.381 | 835.034 | 822.221 | 808.976
x1 = 0.2 | 877.394 | 868.517 | 854.953 | 841.015
x1 = 0.3 | 908.051 | 898.746 | 884.583 | 870.102
x1 = 0.35 | 922.305 | 912.816 | 898.402 | 885.344
x1 = 0.3999 | 935.772 | 926.126 | 911.47 | 896.55
x1 = 0.4495 | 948.602 | 938.806 | 923.966 | 908.867
x1 = 0.5001 | 961.044 | 951.116 | 936.085 | 920.835
x1 = 0.6001 | 984.156 | 973.999 | 958.66 | 943.14
x1 = 0.6999 | 1005.33 | 995.001 | 979.414 | 963.679
x1 = 0.8003 | 1025.06 | 1014.57 | 998.792 | 982.885
x1 = 0.9 | 1043.28 | 1032.67 | 1016.71 | 1000.67
x1 = 1 | 1060.33 | 1049.6 | 1033.5 | 1017.34

CCOC(=O)CC(=O)OCC [diethyl 1,3-propanedioate] + CC(C)O
mass density [kg/m3]
Settings | 288.15 K | 298.15 K | 313.15 K | 328.15 K
x1 = 0.1001 | 836.917 | 827.809 | 813.707 | 798.938
x1 = 0.2 | 877.015 | 867.404 | 852.617 | 837.294
x1 = 0.3 | 911.283 | 901.308 | 886.063 | 870.365
x1 = 0.3501 | 926.715 | 916.6 | 901.155 | 885.344
x1 = 0.4 | 940.924 | 930.696 | 915.119 | 899.194
x1 = 0.455 | 955.561 | 945.23 | 929.523 | 913.507
x1 = 0.4999 | 966.784 | 956.373 | 940.573 | 924.508
x1 = 0.5501 | 978.638 | 968.162 | 952.282 | 936.171
x1 = 0.5999 | 989.637 | 979.111 | 963.18 | 947.033
x1 = 0.6499 | 1000.13 | 989.567 | 973.566 | 957.417
x1 = 0.7001 | 1010.03 | 999.417 | 983.39 | 967.228
x1 = 0.8 | 1028.36 | 1017.69 | 1001.63 | 985.453
x1 = 0.8995 | 1044.94 | 1034.26 | 1018.18 | 1002.01
x1 = 1 | 1060.33 | 1049.6 | 1033.5 | 1017.34

CCOC(=O)CC(=O)OCC [diethyl 1,3-propanedioate] + CCCCCO
mass density [kg/m3]
Settings | 288.15 K | 298.15 K | 313.15 K | 328.15 K
x1 = 0.0999 | 849.562 | 841.661 | 829.624 | 817.296
x1 = 0.1998 | 878.757 | 870.343 | 857.553 | 844.519
x1 = 0.2999 | 906.036 | 897.187 | 883.774 | 870.127
x1 = 0.3498 | 919.092 | 910.054 | 896.347 | 882.426
x1 = 0.3997 | 931.801 | 922.576 | 908.607 | 894.428
x1 = 0.4499 | 944.204 | 934.797 | 920.565 | 906.141
x1 = 0.4999 | 956.145 | 946.568 | 932.101 | 917.475
x1 = 0.5501 | 967.903 | 958.185 | 943.506 | 928.648
x1 = 0.599 | 978.962 | 969.118 | 954.233 | 939.199
x1 = 0.65 | 990.137 | 980.151 | 965.074 | 949.864
x1 = 0.6997 | 1000.81 | 990.684 | 975.442 | 960.07
x1 = 0.7997 | 1021.52 | 1011.18 | 995.601 | 979.945
x1 = 0.9 | 1041.37 | 1030.84 | 1015 | 999.065
x1 = 1 | 1060.33 | 1049.6 | 1033.5 | 1017.34

CCOC(=O)CC(=O)OCC [diethyl 1,3-propanedioate] + CCCCO
mass density [kg/m3]
Settings | 288.15 K | 298.15 K | 313.15 K | 328.15 K
x1 = 0.1001 | 850.611 | 842.336 | 829.747 | 816.824
x1 = 0.2002 | 883.667 | 874.886 | 861.524 | 847.882
x1 = 0.3001 | 913.38 | 904.169 | 890.202 | 875.956
x1 = 0.35 | 927.207 | 917.818 | 903.569 | 889.092
x1 = 0.4 | 940.225 | 930.667 | 916.189 | 901.465
x1 = 0.45 | 952.775 | 943.06 | 928.349 | 913.434
x1 = 0.5 | 964.641 | 954.786 | 939.89 | 924.793
x1 = 0.5501 | 976.114 | 966.141 | 951.051 | 935.788
x1 = 0.5999 | 986.952 | 976.853 | 961.602 | 946.182
x1 = 0.7 | 1007.44 | 997.139 | 981.612 | 965.954
x1 = 0.7998 | 1026.31 | 1015.86 | 1000.1 | 984.244
x1 = 0.9001 | 1043.95 | 1033.35 | 1017.41 | 1001.38
x1 = 1 | 1060.33 | 1049.6 | 1033.5 | 1017.34

CCOC(=O)CC(=O)OCC [diethyl 1,3-propanedioate] + CCCO
mass density [kg/m3]
Settings | 288.15 K | 298.15 K | 313.15 K | 328.15 K
x1 = 0.1001 | 854.156 | 845.431 | 832.128 | 818.439
x1 = 0.2 | 891.858 | 882.638 | 868.577 | 854.173
x1 = 0.2999 | 923.874 | 914.254 | 899.629 | 884.69
x1 = 0.3501 | 938.229 | 928.438 | 913.567 | 898.431
x1 = 0.4001 | 951.433 | 941.51 | 926.45 | 911.123
x1 = 0.4499 | 963.765 | 953.71 | 938.475 | 922.986
x1 = 0.4999 | 975.313 | 965.148 | 949.737 | 934.134
x1 = 0.5446 | 985.016 | 974.758 | 959.257 | 943.524
x1 = 0.5997 | 996.235 | 985.888 | 970.245 | 954.437
x1 = 0.7003 | 1014.96 | 1004.46 | 988.638 | 972.67
x1 = 0.7998 | 1031.53 | 1020.94 | 1004.99 | 988.923
x1 = 0.8997 | 1046.55 | 1035.87 | 1019.84 | 1003.72
x1 = 1 | 1060.33 | 1049.6 | 1033.5 | 1017.34

CCOC(=O)CC(=O)OCC [diethyl 1,3-propanedioate] + CCO
mass density [kg/m3]
Settings | 288.15 K | 298.15 K | 313.15 K | 328.15 K
x1 = 0.05 | 826.264 | 817.293 | 803.619 | 789.558
x1 = 0.0999 | 853.923 | 844.646 | 830.505 | 815.983
x1 = 0.1001 | 854.013 | 844.731 | 830.589 | 816.063
x1 = 0.15 | 878.005 | 868.468 | 853.941 | 839.005
x1 = 0.2001 | 899.1 | 889.366 | 874.536 | 859.351
x1 = 0.3 | 934.365 | 924.309 | 909.007 | 893.394
x1 = 0.4 | 962.806 | 952.511 | 936.881 | 920.983
x1 = 0.4498 | 974.929 | 964.533 | 948.801 | 932.802
x1 = 0.4999 | 986.037 | 975.577 | 959.71 | 943.637
x1 = 0.5501 | 996.293 | 985.767 | 969.837 | 953.695
x1 = 0.6001 | 1005.6 | 995.034 | 979.034 | 962.847
x1 = 0.6453 | 1013.44 | 1002.82 | 986.788 | 970.577
x1 = 0.6997 | 1022.16 | 1011.52 | 995.442 | 979.211
x1 = 0.7497 | 1029.61 | 1018.93 | 1002.83 | 986.588
x1 = 0.8496 | 1043.02 | 1032.31 | 1016.2 | 999.969
x1 = 0.8995 | 1049.08 | 1038.36 | 1022.25 | 1006.06
x1 = 1 | 1060.33 | 1049.6 | 1033.5 | 1017.34

CCOC(=O)CC(=O)OCC [diethyl 1,3-propanedioate] + CO
mass density [kg/m3]
Settings | 288.15 K | 298.15 K | 313.15 K | 328.15 K
x1 = 0.05 | 841.286 | 831.536 | 816.754 | 801.691
x1 = 0.1 | 876.23 | 866.252 | 851.13 | 835.697
x1 = 0.1501 | 904.185 | 894.037 | 878.631 | 862.956
x1 = 0.2001 | 926.962 | 916.671 | 901.091 | 885.223
x1 = 0.2501 | 945.901 | 935.504 | 919.763 | 903.75
x1 = 0.3001 | 961.96 | 951.502 | 935.636 | 919.517
x1 = 0.35 | 975.573 | 965.04 | 949.084 | 932.879
x1 = 0.4001 | 987.417 | 976.822 | 960.784 | 944.523
x1 = 0.4503 | 997.752 | 987.12 | 971.04 | 954.725
x1 = 0.5004 | 1006.9 | 996.235 | 980.1 | 963.763
x1 = 0.5497 | 1014.88 | 1004.18 | 988.016 | 971.649
x1 = 0.6 | 1022.04 | 1011.32 | 995.132 | 978.761
x1 = 0.6495 | 1028.48 | 1017.74 | 1001.52 | 985.159
x1 = 0.6997 | 1034.33 | 1023.59 | 1007.37 | 991.006
x1 = 0.7978 | 1044.36 | 1033.61 | 1017.38 | 1001.07
x1 = 0.9009 | 1053.15 | 1042.39 | 1026.22 | 1009.98
x1 = 1 | 1060.33 | 1049.6 | 1033.5 | 1017.34

CCO [ethanol] + CCOC(=O)CC(=O)OCC
x2 = 0
Settings | mass density [kg/m3]
288.15 K | 794.044
298.15 K | 785.489
313.15 K | 772.42
328.15 K | 758.958

CO [methanol] + CCOC(=O)CC(=O)OCC
x2 = 0
Settings | mass density [kg/m3]
288.15 K | 796.406
298.15 K | 786.987
313.15 K | 772.74
328.15 K | 758.201

CCCCCO [pentan-1-ol] + CCOC(=O)CC(=O)OCC
x2 = 0
Settings | mass density [kg/m3]
288.15 K | 818.801
298.15 K | 811.465
313.15 K | 800.264
328.15 K | 788.737

CCCO [propan-1-ol] + CCOC(=O)CC(=O)OCC
x2 = 0
Settings | mass density [kg/m3]
288.15 K | 809.009
298.15 K | 800.973
313.15 K | 788.687
328.15 K | 775.974
